From US11523986B2, “Intranasally administered antihistamines and uses thereof” (priority 2019, dated 2022)

Legend:
[1] = tested on: EpiAirway tissues; settings: EpiAirway tissues after 120 min, 100 μM
Description: (§1) EpiAirway™ tissues, plated in 24-well plates, and accompanying culture medium and assay buffer solutions, were purchased from MatTek Corporation (Ashland, Mass.). According to the EpiAirway™ AIR-100 Use Protocol provided by MatTek, the tissues were returned to culture immediately upon receipt. In a tissue culture hood, using sterile technique, 1.0 mL of cold medium (AIR-100-ASY) was dispensed into each well of the 6-well plate (n=3) and one tissue insert was transferred to each of the wells. The apical surface of the tissue was exposed to the air (no medium was added to the insert). The tissues were equilibrated overnight at 37° C. in a 5% CO2 incubator. The culture medium was then replaced with fresh, pre-warmed medium until use.
(§2) The unidirectional permeation experiment was conducted according to protocol 18APCIP2 and relevant SOPs of Absorption Systems. Prior to the permeability assay, the culture medium in the plate was aspirated; and ˜1 mL of Dulbecco's phosphate-buffered saline (DPBS) was added to the well to remove any remaining residue of culture medium from the underside of the insert. The tissues were transferred to a 24-well plate with DPBS (750 μL) in each well as receiver, and dosing solution (400 μL) was added to each insert. A 100 μL aliquot was immediately removed as the 0-minute donor sample. Receiver samples (200 μL) were collected at 30, 60, and 120 minutes, replaced with an equal volume of fresh pre-warmed blank buffer at 30 and 60 minutes. The donor side was sampled (100 μL) at 0 and 120 minutes. The assay plate was placed in a humidified CO2 incubator at 37° C. during the assay period.
(§3) After 120 minutes, the tissues were rinsed with DPBS and gently dried with tissue wipes after aspiration of the assay buffer. The insert membranes with tissues attached were carefully removed from the insert apparatus, placed in a tared centrifuge tube, and weighed.
(§4) The apparent permeability coefficient (Papp) and recovery were calculated as follows: Papp=(dCr/dt)×Vr/(A×Cini) (1) Recovery (%)=[((Cr,final×Vr)+(Cd,final×Vd))/(Cini×Vd)]×100 (2) Recovery (%)=[((Cr,final×Vr)+(Cd,final×Vd)+(Tissue Accumulation))/(Cini×Vd)]×100 (3)
(§5) where, • dCr/dt is the slope of cumulative receiver concentration vs. time in μM s^−1; • Vr is the volume of the receiver compartment; • Vd is the volume of the donor compartment; • A is the diffusional area of the membrane; • Cini is the donor concentration at 0 minutes in μM; • CD, final is the donor concentration at 120 minutes in μM; • Cr, final is the receiver concentration at 120 minutes in μM.
(§6) With DPBS, pH 7.4 used on both the donor and receiver sides, permeability was initiated with addition of 0.4 mL of dosing solution into the inserts and of 0.75 mL of blank buffer into the wells of the assay plate. The assay was performed for 120 minutes in a humidified incubator at 37° C.

[2] = tested on: rhinovirus colds; settings: intranasal, phosphate buffer vehicle, patients; Gaffney et al. 1987; cited from earlier work
[3] = in vitro; settings: human, DPBS pH 7.4, 120 min, 37° C., diphenhydramine 100 μM, atenolol 100 μM, caffeine 50 μM co-dosed
Description: as §1, §2, §3, §4, §5, §6

Structure (SMILES)	Tissue Accumulation (nmol/mg) Average ± SD ([1]; average)	Tissue Accumulation (nmol/mg) R1 ([1]; replicate R1)	Tissue Accumulation (nmol/mg) R3 ([1]; replicate R3)	therapeutic effect in reducing signs and symptoms of rhinovirus colds [2]	Papp A→B at 120 min ([3]; pH 7.4, Papp (10^−6 cm/s) Average ± SD, apical dosing, average)	Papp A→B at 120 min ([3]; pH 7.4, Papp (10^−6 cm/s) R1, apical dosing, replicate R1)	Papp A→B at 120 min ([3]; pH 7.4, Papp (10^−6 cm/s) R2, apical dosing, replicate R2)	Papp A→B at 120 min ([3]; pH 7.4, Papp (10^−6 cm/s) R3, apical dosing, replicate R3)
CN(C)CCOC(c1ccccc1)c1ccccc1 [Diphenhydramine, diphenhydramine]	0.212 ± 0.0222 nmol/mg	0.188 nmol/mg	0.218 nmol/mg	no therapeutic effect				
Cn1c(=O)c2c(ncn2C)n(C)c1=O [Caffeine, caffeine]					29.1 ×10⁻⁶ cm/s	30.9 ×10⁻⁶ cm/s	28.2 ×10⁻⁶ cm/s	28.2 ×10⁻⁶ cm/s
